Results: PubChem BioAssay (NCI)
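Test compounds were applied to cells in 96-well plates for 48 hours at 5 doses. At the GI50, growth is halved. Definition used: TGI = concentration required for complete inhibition of growth.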 Where a SMILES comes first, the peptide text is derived from it.

Assays:
Test in all cases: NCI-60 cell line screen, 48 h
[1] = system: HCT-116 colon
[2] = system: A549 NSCLC
[3] = system: ACHN renal
[4] = system: SK-MEL-5 melanoma
[5] = system: NCI-H522 lung
[6] = system: IGROV1 ovarian
[7] = system: 786-0 renal
[8] = system: SNB-75 CNS
[9] = system: DLD-1 colon
[10] = system: SNB-78 CNS
[11] = system: DU-145 prostate

Compound | TGI [1] [µM] | TGI [2] [µM] | TGI [3] [µM] | TGI [4] [µM] | TGI [5] [µM] | TGI [6] [µM] | TGI [7] [µM] | TGI [8] [µM] | TGI [9] [µM] | TGI [10] [µM] | TGI [11] [µM] | GI50 [5] [µM] | GI50 [10] [µM]
NC(N)=NCCCC(N=c1c2ccccc2n(O)c2ccccc12)C(=O)O (stereo unspecified) | > 100 | > 100 | > 100 | 66.6 | > 100 | > 100 | > 100 | 87.6 | > 100 |  |  |  | 
CC1=C2C(O)C(C(C)C(=O)NCC(C)C)CCC2(C)C=CC1=O (stereo unspecified) | > 100 | > 100 |  | > 100 | > 100 | > 100 |  | > 100 | > 100 | > 100 |  |  | 
CCOC(=O)C1(C(=O)OCC)C[C@]23OCCC(=O)[C@H]2[C@H]2C(=O)OC(C)(C)O[C@]23C1 | > 100 | > 100 | > 100 | > 100 | > 100 | > 100 | > 100 | > 100 |  |  | > 100 |  | 
CC(=O)ON(OC(C)=O)c1ccc(C)cc1 | > 100 | > 100 | > 100 | > 100 | > 100 | > 100 | > 100 | > 100 |  |  | > 100 |  | 
O=c1c2ccccc2nc2n1NC(c1c(Cl)cccc1Cl)N2c1cccc(Cl)c1 (stereo unspecified) | 11.6 | 22.2 | 12.5 | 65.5 | 28.8 | 22.4 | 4.24 | 9.92 |  |  | > 100 |  | 
CCOc1c2ccsc2c(OCC)c2ccsc12 | > 100 | > 100 | > 100 | > 29.5 | > 28.9 | > 100 | > 100 | > 28.3 |  |  | > 100 |  | 
Cc1[nH]c2ncn3nc(C(Cl)(Cl)Cl)nc3c2c1Cc1ccccc1 | > 100 | > 100 | > 100 | > 100 | > 100 | > 100 | > 100 | > 100 |  |  | > 100 |  | 
CC1NC(=O)CNC(=O)CNC(=O)C(Cc2ccc(O)cc2)NC(=O)C(C(C)C)NC(=O)C(C)NC1=O (stereo unspecified) (cyclo(GGAAVY); configuration not given here) | > 100 | > 100 |  | > 100 | > 100 | > 100 |  | > 100 | > 100 | > 100 |  | > 100 | > 100
COc1ccc(OC)c(C2CCc3nc4nc(N)nc(N)c4cc3C2)c1 (stereo unspecified) | 3.46 | 31.4 | 29.5 | 18.6 | 4.94 | 26.7 | 6.91 | 4.1 |  |  | 17.8 |  | 
Cc1c(N2C(=O)/C(=C/C=C/c3ccccc3)N=C2c2ccccc2)c(=O)n(-c2ccccc2)n1C | > 100 | 69.8 | 34.1 | 30.8 | 32.6 | 35.5 | > 100 | 32.1 |  |  | > 100 |  | 
COc1ccc(/C=C2\C=Cc3ccccc32)cc1OC | > 100 | > 100 | > 100 | > 100 | > 100 | > 100 | > 100 | 82.2 |  |  | > 100 |  | 
C=C(O)c1ccccc1C#Cc1ccccc1C(=O)OC | > 10 | > 10 | > 10 | > 10 | > 10 | > 10 | > 10 | > 10 |  |  | > 10 |  | 
CNc1ncnc(Sc2nc(N)nc3nc[nH]c23)c1[N+](=O)[O-] | 11.9 | > 49.2 | 14.7 | 13.4 | 6.76 | 22.1 | 16.5 | 2.83 |  |  | > 100 |  | 
CC(C)=CCC[C@]1(C)CC[C@]2(C)C3CCC(=C(C)C)[C@@H](CCCO)[C@]3(C)CC[C@@]2(C)C1 (stereo partly specified) | > 100 | > 100 | > 100 | > 100 | 37.2 | 37.9 | > 100 | > 100 |  |  | > 100 |  | 
Cc1ccc(Nc2nc(=S)[nH]c3[nH]ncc23)cc1 | > 100 | > 100 | > 100 | > 100 | > 100 | > 100 | > 100 | > 100 |  |  | > 100 |  | 
C/C(=N/NC(=S)Nc1ccccc1Cl)c1ccccn1 | 14.2 | 29.6 | 8.59 | 8.67 | 8.19 | 13.9 | 15.8 | 30.5 |  |  | 12.8 |  | 
CN(C)c1nc(N(C)C)nc(N(C)C)n1 | > 150 | > 150 | > 150 | 136 | > 150 | > 135 | > 150 | 149 | > 150 | > 150 | > 150 |  | 
Cc1cc(-c2ccc(C(=O)O)[nH]2)on1 | > 100 | > 100 | > 100 | > 100 | > 100 | > 100 | > 100 | > 100 |  |  | > 100 |  | 
CC/C(=N\NC(=O)c1cccnc1)c1ccc2c(c1)OCCO2 | > 100 | > 100 | > 100 | > 100 | 79.5 | > 100 | > 100 | > 100 |  |  | > 100 |  | 
O=C(c1ccccc1)c1ccc(C(c2c(O)c3ccccc3oc2=O)c2c(O)c3ccccc3oc2=O)cc1 | > 80.2 | > 82.5 | 48.6 | > 68.5 | 43 | > 60.9 | 48.9 | 62.4 |  |  | > 85.7 |  | 
Cn1c(=O)oc2cc(C(=O)CSC(=S)N3CCCCCC3)ccc21 | > 100 | > 100 | > 100 | > 100 | > 100 | > 100 | > 100 | > 100 |  |  | > 100 |  | 
